Measurements taken from patent US10098895B2, “Treatment of symptoms related to neurodegenerative disorders through pharmacological dermal activation of cranial nerves” (GLIA, LLC, priority 2016, dated 2018).

Tests used:
[1] = tested on: Parkinson's disease symptoms; experiment: Example 1: Parkinson's disease patient, dermal application to forehead and ear conchae
Protocol: A person was diagnosed with the early stages of Parkinson's disease in December of 2014. Their symptoms included tremors in the hands, impaired short term memory, slow and uncontrolled rigid movements while walking and eating, and declining ocular blink function. The patient also had dry eyes with hyper-tearing, burning, and itching.
The patient was also treated with progesterone 1% on the forehead initially once daily beginning in March 2015. […] The progesterone was applied as needed for about a year.
Instead of the prescribed regimen, the patient began dermal application of dronabinol 1.25 mg 2 times daily to three sites: (i) the forehead, (ii) the concha of the left ear, and (iii) the concha of the right ear. Each dose of 1.25 mg was divided equally between the three application sites. This treatment regimen began Friday Jun. 10, 2016 concurrent with the discontinuation of rasagiline.
In February 2017, the patient, who suffers from debilitating moderate spinal stenosis, started taking Azilect (rasagiline) and carbidopa-levodopa to improve their walking and flexibility. […] The patient decided that, together with the prescribed medications, they would switch from dronabinol to topical testosterone gel applied to the forehead and ear conchae to see if this would impact their longstanding low testosterone levels.
In March 2017, topical testosterone gel application was instituted as an adjunct to is the prescribed Azilect and carbidopa-levodopa.
The patient voluntarily stopped topical testosterone for 3 weeks in June 2017. […] At the end of 3 weeks, topical testosterone was re-instituted as an adjunct to the prescribed medications.

[2] = tested on: Parkinson's tremor and ocular graft-versus-host disease; experiment: Example 3: Parkinson's tremor and co-morbid ocular graft-versus-host disease, topical progesterone; format: in vivo, human
Text: A person was diagnosed with Parkinson's disease over 3 years ago, leukemia about 2 years ago, and ocular graft versus host disease resulting from allogeneic stem cell treatment for the leukemia. The patient has been on oral carbidopa-levodopa for at least 2 years.
The patient started treatment with twice daily progesterone 1% gel applied to the forehead to promote ocular secretion of tear film, and to resolve other symptoms and signs of surface eye disease. […] On a follow up visit 5 weeks later, they reported continued relief from burning and photophobia.
When the patient was first seen in June 2016, they had noticeable significant tremors in both hands and multiple fingers. These were related to their Parkinson's disease as diagnosed and included muscle contractions, i.e., dyskinesia, related to their carbidopa-levodopa oral treatment.
During the 5-week ophthalmologist follow-up visit, the progesterone treatment regimen was performed in the office in modified form. More specifically, the daily dose of progesterone was divided, with 1 mg applied to the concha of each ear, excluding the forehead, to which progesterone had been applied 6 hours earlier. The patient reported improved moisture and comfort in both eyes approximately 2 minutes post application.
The patient had taken carbidopa-levodopa extended release medication at 6 am that morning, with an added immediate release dose at 8 am. The visit to the ophthalmologist was at 2 pm. At that point there was uncontrolled movement of the hands (dyskinesia) along with finger vibrations. The patient reported that the usual duration of efficacy of their carbidopa-levodopa regimen was 4 hours. Normally they would have taken another carbidopa-levodopa dose at 2 pm. Instead, progesterone was applied to the concha of both ears as described, supra.

chronic ocular GVHD [3] = experiment: Example 4: chronic ocular GVHD, progesterone 1% to the forehead; format: in vivo, human; conditions: after 4 weeks
Text: A patient with chronic ocular GVHD, upon examination, had numerous ocular surface conditions as well as damaged Meibomian glands and ocular disease behind the eye. There was notable ocular surface disease including no visible production of tear film observed by Tearscope, profuse exudate in eyes, lid sticking, and recurring filamentary keratitis.

chronic ocular GVHD [4] = experiment: Example 5: second case of chronic ocular GVHD, tear film breakup time by Keratograph 5; format: in vivo, human
Protocol: A patient with chronic ocular GVHD complained of eye discomfort, burning, and sticking lids. […] Their first-measured tear film breakup time was 7.4 seconds, with an average breakup time of 11.39 seconds. The patient was treated with a single dose of progesterone 1% to their forehead, followed by retesting of the tear film breakup time after 30 minutes. At that time, the first-measured tear film breakup time was 21.03 seconds, with an average breakup time of 21.35 seconds. The tear meniscus height in both eyes increased over 0.6 mm following the single application of progesterone.

essential tremor = experiment: Example 7: essential tremor subject with contact lens discomfort; format: in vivo, human
Protocol: A person developed persistent right hand tremors of a kinetic (non-resting) type that has been continuous over the past 6 years. […] This condition had not worsened over time. […] Initially, their doctor thought that these symptoms were stress related and they have been taking 2.5 mg of escitalopram for over 6 years. […] The subject was not on hormone replacement therapy or any other medication.
Concomitantly, the subject suffered from uncomfortable eyes, with a sticky burning sensation and development of blurred vision after about 5-6 hours of contact lens wear. For the past 3 years, the subject was administered 1% progesterone gel (1 mg per day) by dermal application to the forehead once per night. The progesterone gel prolonged comfortable contact lens wear time with sustained visual acuity from 5-6 hours to greater than 15 hours. […] After 2 years of treatment, the benefits of progesterone dermal application persisted for at least 3 days without treatment. There was no effect of the progesterone on their tremor symptoms.
After allowing for washout of progesterone for 3 days, they began forehead application of 0.5-0.75 mg dronabinol once daily at night.
The dronabinol administration regimen was altered by dividing equally the once daily dose of 0.5-0.75 mg dronabinol between the conchae of the left ear, the conchae of the right ear, and the forehead. […] Comfortable contact lens wear, with ease of insertion and removal, and visual acuity extends for 15 hours or more after dronabinol application.
Contact lens comfort wear duration was greater than 15 hours.
In April 2017, the subject, while still being treated with 1% progesterone applied to the forehead, instituted a once-daily low dose topical testosterone applied to the forehead and ear conchae to determine if doing so would produce a beneficial impact on further tremor reduction and in particular essential tremor triggered by caffeine consumption. […] They stopped the treatment to assess whether the tremor would return to pre-testosterone treatment levels. As of August 2017, the subject is without noticeable tremor. The caffeine trigger for tremor onset, which had been recognized throughout all treatments, has not re-appeared since the completion of the 4-week testosterone treatment. The subject continues on low-dose progesterone 1% applied daily to the forehead as the only treatment.

[5] = progesterone 0.5% to the concha of both ears

For `CC(=O)[C@H]1CC[C@H]2[C@@H]3CCC4=CC(=O)CC[C@]4(C)[C@H]3CC[C@]12C` [progesterone], the adverse events ([1]; human, in vivo) was “no adverse events were noted”, the “ocular symptoms of burning and itching” value ([1]; progesterone 1% on the forehead, initially once daily, then as needed, on oral rasagiline) was “relieved their ocular symptoms of burning and itching” and the “dry eye disease symptoms” value ([1]; progesterone 1% to the forehead once every week, July 2016 to August 2017) was “fully manage dry eye disease symptoms”. For the same molecule, the “onset of tremor cessation” value ([2]; low dose progesterone USP added to conchae of outer ears) was “rapid cessation of tremor within minutes”, the “time to improved moisture and comfort in both eyes” value ([2]; progesterone 1 mg to the concha of each ear) was “approximately 2 minutes” and the “reduction of tremors in hands and fingers in frequency and amplitude” value ([2]; progesterone 1 mg to the concha of each ear, 2 minutes post application) was “about 90%”. For the same molecule, the tear film secretion ([2]; progesterone 1% gel twice daily to forehead, after initial treatment) was “tear film secretion was improved”, the photophobia and burning ([2]; progesterone 1% gel twice daily to forehead, after initial treatment, on oral carbidopa-levodopa) was “immediate relief of photophobia and burning” and the “facial masking and facial expression” value ([2]; progesterone applied to ear conchae regions) was “decreased facial masking and more voluntary facial expressions”. The “hand and finger tremors” value ([2]; progesterone applied to the forehead only, 5 weeks) was “no change seen in the hand and finger tremors”, the tremor ([2]; topical progesterone to both conchae and forehead, carbidopa-levodopa at lower dosing frequency, 5 days) was “remained tremor-free until the subsequent visit 5 days later” and the “exudate in both eyes” value (chronic ocular GVHD [3]) was “noticeable decrease in exudate”. The “lid sticking and friction” value (chronic ocular GVHD [3]) was “improvement in lid sticking and friction”, the “tear film production by Tearscope” value (chronic ocular GVHD [3]) was “tear film production was observed” and the “duration of increased ocular comfort with each dose” value (chronic ocular GVHD [4]; progesterone twice a day to forehead) was “at least 5 hours”. The “increase in tear meniscus height in both eyes” value (chronic ocular GVHD [4]; single application of progesterone 1% to forehead) was “over 0.6 mm”, the “first-measured tear film breakup time” value (chronic ocular GVHD [4]; single dose progesterone 1% to forehead, after 30 minutes, pre-treatment 7.4 seconds) was 21.03 s and the “average tear film breakup time” value (chronic ocular GVHD [4]; single dose progesterone 1% to forehead, after 30 minutes, pre-treatment 11.39 seconds) was 21.35 s. For the same molecule, the tremor symptoms (essential tremor; 1% progesterone gel (1 mg per day) to forehead) was “no effect”, the “comfortable contact lens wear time with sustained visual acuity” value (essential tremor; 1% progesterone gel (1 mg per day) to forehead once per night, from 5-6 hours before) was “greater than 15 hours” and the “persistence of benefits without treatment” value (essential tremor; after 2 years of progesterone dermal application to forehead) was “at least 3 days”. For the same molecule, the adverse events (essential tremor; human, in vivo) was “no adverse events”, the “routine mammography and serum hormone levels” value (essential tremor; human, in vivo) was “normal” and the “comfortable contact lens wear” value (essential tremor; low dose progesterone 1% to the forehead only, daily, 12 months up to August 2017) was 15 h. The “tremor on maintenance treatment” value (essential tremor; maintenance dose of progesterone 1% to forehead after testosterone course) was “tremor-free”, the “contact lens comfort wear duration” value (essential tremor; [5]) was “greater than 15 hours” and the hand tremor (essential tremor; [5]) was “subsided to the same degree as it did with dronabinol treatment”.
